Data reported in article PMC10004187 (Molecules, 2023).

Experiments:
[1] = molecular target: T1, butyrylcholinesterase (BuChE) (Homo sapiens, UniProt P06276); details: for Butyrylcholinesterase (BuChE) Inhibition %Inhibition: given for compounds with <50% inhibition, test concentration not given
[2] = system: Vero cell lines (normal kidney epithelial cells); test: SRB cytotoxicity assay against Vero cell line; format: cell-based; details: initial screening
Procedure: To investigate the cytotoxicity of potent compounds (8a, 8c, 8g, and 9i), an SRB assay was performed against Vero cell lines (normal kidney epithelial cells). The total protein generated when cells were treated with putative anticancer drugs was assessed using a very precise […] technique. […] It can readily connect with cells that have been fixed with trichloroacetic acid (TCA). A bright color is produced by the SRB dye when it binds solely to intracellular proteins, and the color is proportional to the quantity of protein present in the cell.

[3] = molecular target: T1, butyrylcholinesterase (BuChE); test: biochemical

T1 sequence (P06276 29-602): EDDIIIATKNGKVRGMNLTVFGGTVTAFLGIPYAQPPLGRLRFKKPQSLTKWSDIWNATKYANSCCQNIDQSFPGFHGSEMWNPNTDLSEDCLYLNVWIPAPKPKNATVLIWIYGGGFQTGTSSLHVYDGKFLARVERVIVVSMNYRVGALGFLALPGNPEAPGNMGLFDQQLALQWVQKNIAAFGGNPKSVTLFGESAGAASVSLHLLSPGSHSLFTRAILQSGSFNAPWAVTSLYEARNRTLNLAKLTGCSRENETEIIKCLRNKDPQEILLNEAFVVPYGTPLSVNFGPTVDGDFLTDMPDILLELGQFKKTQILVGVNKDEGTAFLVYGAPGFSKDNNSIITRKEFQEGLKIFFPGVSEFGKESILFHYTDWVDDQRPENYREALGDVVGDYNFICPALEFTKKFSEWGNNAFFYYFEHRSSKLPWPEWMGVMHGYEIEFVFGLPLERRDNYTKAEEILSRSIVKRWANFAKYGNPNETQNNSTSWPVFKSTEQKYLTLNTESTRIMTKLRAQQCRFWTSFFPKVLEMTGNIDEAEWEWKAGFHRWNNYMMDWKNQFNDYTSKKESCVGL

SMILES	Butyrylcholinesterase (BuChE) Inhibition %Inhibition [1]	other results
COc1cccc(C(=O)NN=Cc2cc3cc(C)ccc3nc2N2CCCCC2)c1 [Compound 8k, 3-Methoxy-N′-((6-methyl-2-(piperidin-1-yl)quinolin-3-yl)methylene)benzohydrazide]	28%	–
Cc1ccc2nc(N3CCCCC3)c(C=NNC(=O)c3ccc([N+](=O)[O-])cc3)cc2c1 [Compound 8c, N′-((6-methyl-2-(piperidin-1-yl)quinolin-3-yl)methylene)-4-nitrobenzohydrazide]	–	inhibition of Vero cells (toxicity towards normal kidney cells) [2]: less than 22%; IC50 [3]: 1.74 ± 0.03 µM
Cc1ccc2nc(N3CCCCC3)c(C=NNC(=O)c3cccc(Cl)c3)cc2c1 [Compound 8g, 3-Chloro-N′-((6-methyl-2-(piperidin-1-yl)quinolin-3-yl)methylene)benzohydrazide]	–	inhibition of Vero cells (toxicity towards normal kidney cells) [2]: less than 22%; IC50 [3]: 1.31 ± 0.05 µM
Cc1cccc2cc(C=NNC(=O)c3cccc(Cl)c3)c(N3CCCCC3)nc12 [Compound 9e, 3-Chloro-N′-((8-methyl-2-(piperidin-1-yl)quinolin-3-yl)methylene)benzohydrazide]	40%	–
Cc1cccc2cc(C=NNC(=O)c3ccccc3Cl)c(N3CCCCC3)nc12 [Compound 9d, 2-Chloro-N′-((8-methyl-2-(piperidin-1-yl)quinolin-3-yl)methylene)benzohydrazide]	38%	–
COc1ccccc1C(=O)NN=Cc1cc2cccc(C)c2nc1N1CCCCC1 [Compound 9h, 2-Methoxy-N′-((8-methyl-2-(piperidin-1-yl)quinolin-3-yl)methylene)benzohydrazide]	33%	–
Cc1ccc2nc(N3CCCCC3)c(C=NNC(=O)c3ccccc3O)cc2c1 [Compound 8m, 2-Hydroxy-N′-((6-methyl-2-(piperidin-1-yl)quinolin-3-yl)methylene)benzohydrazide]	13%	–
Cc1ccc2nc(N3CCCCC3)c(C=NNC(=O)c3ccccc3Cl)cc2c1 [Compound 8f, 2-Chloro-N′-((6-methyl-2-(piperidin-1-yl)quinolin-3-yl)methylene)benzohydrazide]	15%	–
Cc1ccc2nc(N3CCCCC3)c(C=NNC(=O)c3ccccc3)cc2c1 [Compound 8a, N′-((6-methyl-2-(piperidin-1-yl)quinolin-3-yl)methylene)benzohydrazide]	–	inhibition of Vero cells (toxicity towards normal kidney cells) [2]: less than 22%; IC50 [3]: 4.64 ± 0.43 µM
COc1ccc(C(=O)NN=Cc2cc3cccc(C)c3nc2N2CCCCC2)cc1 [Compound 9j, 4-Methoxy-N′-((8-methyl-2-(piperidin-1-yl)quinolin-3-yl)methylene)benzohydrazide]	38%	–
Cc1ccc2nc(N3CCCCC3)c(C=NNC(=O)c3cccc([N+](=O)[O-])c3)cc2c1 [Compound 8b, N′-((6-methyl-2-(piperidin-1-yl)quinolin-3-yl)methylene)-3-nitrobenzohydrazide]	–	IC50 [3]: 4.71 ± 0.45 µM; BuChE inhibition ability, fold reduction relative to 8g ([1]; Cl exchanged for NO2, vs lead 8g): 3 folds
Cc1cccc2cc(C=NNC(=O)c3ccccc3)c(N3CCCCC3)nc12 [Compound 9a, N′-((8-methyl-2-(piperidin-1-yl)quinolin-3-yl)methylene)benzohydrazide]	32%	–
Cc1ccc2nc(N3CCCCC3)c(C=NNC(=O)c3ccc(N)cc3)cc2c1 [Compound 8e, 4-Amino-N′-((6-methyl-2-(piperidin-1-yl)quinolin-3-yl)methylene)benzohydrazide]	23%	–
Cc1cccc2cc(C=NNC(=O)c3ccc(Cl)cc3Cl)c(N3CCCCC3)nc12 [Compound 9g, 2,4-Dichloro-N′-((8-methyl-2-(piperidin-1-yl)quinolin-3-yl)methylene)benzohydrazide]	32%	–
Cc1ccc2nc(N3CCCCC3)c(C=NNC(=O)c3ccc(Cl)cc3Cl)cc2c1 [Compound 8i, 2,4-Dichloro-N′-((6-methyl-2-(piperidin-1-yl)quinolin-3-yl)methylene)benzohydrazide]	39%	–
Cc1ccc2nc(N3CCCCC3)c(C=NNC(=O)c3ccc(Cl)cc3)cc2c1 [Compound 8h, 4-Chloro-N′-((6-methyl-2-(piperidin-1-yl)quinolin-3-yl)methylene)benzohydrazide]	34%	–
Cc1cccc2cc(C=NNC(=O)c3ccc([N+](=O)[O-])cc3)c(N3CCCCC3)nc12 [Compound 9c, N′-((8-methyl-2-(piperidin-1-yl)quinolin-3-yl)methylene)-4-nitrobenzohydrazide]	32%	–
COc1ccc(C(=O)NN=Cc2cc3cc(C)ccc3nc2N2CCCCC2)cc1 [Compound 8l, 4-Methoxy-N′-((6-methyl-2-(piperidin-1-yl)quinolin-3-yl)methylene)benzohydrazide]	15%	–
Cc1cccc2cc(C=NNC(=O)c3cccc([N+](=O)[O-])c3)c(N3CCCCC3)nc12 [Compound 9b, N′-((8-methyl-2-(piperidin-1-yl)quinolin-3-yl)methylene)-3-nitrobenzohydrazide]	27%	–
Cc1ccc2nc(N3CCCCC3)c(C=NNC(=O)c3ccccc3N)cc2c1 [Compound 8d, 2-Amino-N′-((6-methyl-2-(piperidin-1-yl)quinolin-3-yl)methylene)benzohydrazide]	21%	–
COc1ccccc1C(=O)NN=Cc1cc2cc(C)ccc2nc1N1CCCCC1 [Compound 8j, 2-Methoxy-N′-((6-methyl-2-(piperidin-1-yl)quinolin-3-yl)methylene)benzohydrazide]	30%	–
Cc1cccc2cc(C=NNC(=O)c3ccc(Cl)cc3)c(N3CCCCC3)nc12 [Compound 9f, 4-Chloro-N′-((8-methyl-2-(piperidin-1-yl)quinolin-3-yl)methylene)benzohydrazide]	36%	–
COc1cccc(C(=O)NN=Cc2cc3cccc(C)c3nc2N2CCCCC2)c1 [Compound 9i, 3-Methoxy-N′-((8-methyl-2-(piperidin-1-yl)quinolin-3-yl)methylene)benzohydrazide]	27%	inhibition of Vero cells (toxicity towards normal kidney cells) [2]: less than 22%
